The source of these data is patent US11046699B2, “Pyrazolo-pyrimidin-amino-cycloalkyl compounds and their therapeutic uses” (RAPT THERAPEUTICS, INC., priority 2018, dated 2021).

In the assay the target is GCN2 (Homo sapiens, UniProt Q9P2K8). The experiment in a line: GCN2 enzymatic endpoint assay: phosphorylation of GFP-eIF2α measured by TR-FRET (Lanthascreen). Format: biochemical. Summed up:
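2 μM ATP, 80 nM GFP-eIF2α, RT, 90 min; EDTA stop. Tb-anti-phospho antibody TR-FRET read, 520/495 nm ratio.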
(In general: In TR-FRET formats the signal depends on donor and acceptor labels being close together.)

Setting [1] is: tested as described in Example 77, compound and/or hydrochloride, dihydrochloride or trifluoroacetic acid salt, read-out: IC 50 Activity.
Setting [2] is: GCN2 biochemical IC50, 4 nM GCN2, 2 μM ATP, 80 nM GFP-eIF2α, 90 min RT, read-out: GCN2 activity.

The structures appear in SMILES notation. Where two headings read alike, the source gives them in different places.

Chain of GCN2 (Q9P2K8 whole entry): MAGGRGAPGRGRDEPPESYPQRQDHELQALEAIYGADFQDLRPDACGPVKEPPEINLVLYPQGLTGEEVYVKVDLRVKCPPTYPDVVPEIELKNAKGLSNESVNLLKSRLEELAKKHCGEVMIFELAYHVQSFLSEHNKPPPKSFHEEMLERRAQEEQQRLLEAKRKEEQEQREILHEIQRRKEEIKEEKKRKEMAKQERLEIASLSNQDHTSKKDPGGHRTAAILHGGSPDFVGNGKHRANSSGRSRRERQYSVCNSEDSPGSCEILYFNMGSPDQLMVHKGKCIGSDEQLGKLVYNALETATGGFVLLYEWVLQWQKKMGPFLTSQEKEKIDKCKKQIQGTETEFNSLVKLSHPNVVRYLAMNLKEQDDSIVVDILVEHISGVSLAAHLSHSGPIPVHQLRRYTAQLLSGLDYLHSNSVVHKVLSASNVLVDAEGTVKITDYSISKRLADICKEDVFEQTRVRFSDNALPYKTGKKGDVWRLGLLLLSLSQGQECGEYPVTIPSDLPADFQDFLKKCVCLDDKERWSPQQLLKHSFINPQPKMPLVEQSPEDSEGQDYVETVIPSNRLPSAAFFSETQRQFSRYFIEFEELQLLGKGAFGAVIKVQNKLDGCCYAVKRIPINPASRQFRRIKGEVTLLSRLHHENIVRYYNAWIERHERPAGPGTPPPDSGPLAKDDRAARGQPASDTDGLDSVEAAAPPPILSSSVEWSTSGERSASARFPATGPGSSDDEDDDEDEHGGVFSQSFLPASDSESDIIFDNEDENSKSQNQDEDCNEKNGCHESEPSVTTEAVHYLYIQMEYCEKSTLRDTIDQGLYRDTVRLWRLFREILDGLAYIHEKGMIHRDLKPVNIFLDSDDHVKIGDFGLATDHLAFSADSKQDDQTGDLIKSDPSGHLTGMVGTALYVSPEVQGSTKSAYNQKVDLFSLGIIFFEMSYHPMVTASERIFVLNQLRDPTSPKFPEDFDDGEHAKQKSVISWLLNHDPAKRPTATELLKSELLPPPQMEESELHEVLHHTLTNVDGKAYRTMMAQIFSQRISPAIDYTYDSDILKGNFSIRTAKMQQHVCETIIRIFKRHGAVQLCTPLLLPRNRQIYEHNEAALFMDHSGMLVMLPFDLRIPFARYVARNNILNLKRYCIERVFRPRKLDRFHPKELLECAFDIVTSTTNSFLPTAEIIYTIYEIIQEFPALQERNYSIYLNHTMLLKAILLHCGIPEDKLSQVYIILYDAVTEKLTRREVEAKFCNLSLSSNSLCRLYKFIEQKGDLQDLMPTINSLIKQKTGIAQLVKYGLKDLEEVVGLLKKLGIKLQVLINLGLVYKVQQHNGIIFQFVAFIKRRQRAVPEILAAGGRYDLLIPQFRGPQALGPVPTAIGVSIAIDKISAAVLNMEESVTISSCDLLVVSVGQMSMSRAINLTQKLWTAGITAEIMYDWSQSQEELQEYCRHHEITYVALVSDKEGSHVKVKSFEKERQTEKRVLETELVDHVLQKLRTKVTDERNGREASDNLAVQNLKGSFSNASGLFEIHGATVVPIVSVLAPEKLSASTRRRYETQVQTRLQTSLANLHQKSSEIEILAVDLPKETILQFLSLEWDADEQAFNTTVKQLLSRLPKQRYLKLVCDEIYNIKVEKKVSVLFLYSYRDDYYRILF

With `Cc1nnc(-c2ccc(-n3nc(Br)c4cnc(NC5CC(P(C)(C)=O)C5)nc43)cc2)s1` (stereo not shown) [3-bromo-N-(3-dimethylphosphorylcyclo-butyl)-1-[4-(5-methyl-1,3,4-thiadiazol-2-yl)phenyl]pyrazolo[3,4-d]pyrimidin-6-amine], the IC50 under setting [1] was 25 to 200 nM.
Take `CS(=O)(=O)C1CC[C@@H](Nc2ncc3c(Br)nn(-c4cc(CCN)c5nccnc5c4)c3n2)C1` (stereo partly drawn) [1-[8-(2-aminoethyl)quinoxalin-6-yl]-3-bromo-N-[(1R)-3-methylsulfonylcyclo-pentyl]pyrazolo[3,4-d]pyrimidin-6-amine]: the IC50 under setting [1] was under 25 nM.
Still for that read-out and setting: then `O=C(CO)N1CCN(C(=O)[C@@H]2CC[C@@H](Nc3ncc4c(Br)nn(-c5ccc6ncccc6c5)c4n3)C2)CC1` [1-(4-((1R,3R)-3-((3-bromo-1-(quinolin-6-yl)-1H-pyrazolo[3,4-d]pyrimidin-6-yl)amino)cyclopentane-1-carbonyl)piperazin-1-yl)-2-hydroxyethan-1-one], with 25 to 200 nM.
Consider `CNC(=O)[C@]1(C)CC[C@@H](Nc2ncc3c(Br)nn(-c4ccc5nccc(OC)c5c4)c3n2)C1` [(1R,3R)-3-[[3-bromo-1-(4-methoxy-6-quinolyl)pyrazolo[3,4-d]pyrimidin-6-yl]amino]-N,1-dimethyl-cyclopentanecarboxamide], for which the IC50 under setting [1] was under 25 nM.
The same measure, in the same setting: then `CNC(=O)[C@@H]1CC[C@@H](Nc2ncc3c(Br)nn(-c4cnc5ncccc5c4)c3n2)C1` [(1R,3R)-3-[[3-bromo-1-(1,8-naphthyridin-3-yl)pyrazolo[3,4-d]pyrimidin-6-yl]amino]-N-methyl-cyclopentanecarboxamide], with 25 to 200 nM; and `CNC(=O)[C@]1(C)CC[C@@H](Nc2ncc3c(Br)nn(-c4cc(CCN5CCOCC5)c5ncccc5c4)c3n2)C1` [(1R,3R)-3-[[3-bromo-1-[8-(2-morpholinoethyl)-6-quinolyl]pyrazolo [3,4-d]pyrimidin-6-yl]amino]-N,1-dimethyl-cyclopentanecarboxamide], with 25 to 200 nM.
The same measure, in the same setting: then `N#Cc1cc(-n2nc(Br)c3cnc(N[C@@H]4CC[C@@H](C(=O)NC[C@H]5COCCN5)C4)nc32)cc2cccnc12` [(1R,3R)-3-((3-bromo-1-(8-cyanoquinolin-6-yl)-1H-pyrazolo[3,4-d]pyrimidin-6-yl)amino)-N-(((S)-morpholin-3-yl)methyl)cyclopentane-1-carboxamide], with under 25 nM; and `CNC(=O)[C@]1(C)CC[C@@H](Nc2ncc3c(Br)nn(-c4cc(Cl)c(F)c(CN)c4)c3n2)C1`, with 25 to 200 nM.
Same read-out and setting: for `CC(C)(O)CNC(=O)[C@@H]1CC[C@@H](Nc2ncc3c(Br)nn(-c4cc(F)c5ncccc5c4)c3n2)C1` the value was 25 to 200 nM; for `CC1N(C)C(=O)CN1C(=O)[C@@H]1CC[C@@H](Nc2ncc3c(Br)nn(-c4cc(F)c5ncccc5c4)c3n2)C1` (mixture of isomers), under 25 nM.
With `CNC(=O)[C@]1(C)CC[C@@H](Nc2ncc3c(Br)nn(-c4ccc5c(c4)NC(=O)COC5)c3n2)C1` [(1R,3R)-3-[[3-bromo-1-(2-oxo-1,5-dihydro-4,1-benzoxazepin-8-yl)pyrazolo[3,4-d]pyrimidin-6-yl]amino]-N,1-dimethyl-cyclopentanecarboxamide], the IC50 under setting [1] lay in the range of 25 to 200 nM.
As for `Cc1nnc(-c2ccc(-n3nc(Br)c4cnc(N[C@@H]5CC[C@](C(=O)N6CCNCC6)(C(C)C)C5)nc43)cc2CCC#N)s1` [3-[5-[3-bromo-6-[[(1R,3R)-3-isopropyl-3-(piperazine-1-carbonyl)cyclopentyl]amino]pyrazolo[3,4-d]pyrimidin-1-yl]-2-(5-methyl-1,3,4-thiadiazol-2-yl)phenyl] propanenitrile], under setting [1], the IC50 is under 25 nM.
Regarding `COCCNC(=O)[C@@H]1CC[C@@H](Nc2ncc3c(Cl)nn(-c4ccc5ncccc5c4)c3n2)C1` [Example 14, (1R,3R)-3-((3-chloro-1-(quinolin-6-yl)-1H-pyrazolo[3,4-d]pyrimidin-6-yl)amino)-N-(2-methoxyethyl)cyclopentane-1-carboxamide], the IC50 under setting [2] was under 25 nM.
For the compound `CS(=O)(=O)CCNC(=O)C12CCC(Nc3ncc4c(Br)nn(-c5ccc6ncccc6c5)c4n3)(C1)C2` [4-((3-bromo-1-(quinolin-6-yl)-1H-pyrazolo [3,4-d]pyrimidin-6-yl)amino)-N-(2-(methyl-sulfonyl)ethyl)bicyclo[2.1.1]hexane-1-carboxamide], under setting [1], the IC50 was in the range of 200 to 500 nM.
As for `CNC(=O)[C@]1(C)CC[C@@H](Nc2ncc3c(Br)nn(-c4cc(CCNS(C)(=O)=O)c5ncccc5c4)c3n2)C1` [(1R,3R)-3-[[3-bromo-1-[8-[2-(methane-sulfonamido)ethyl]-6-quinolyl]pyrazolo [3,4-d]pyrimidin-6-yl]amino]-N,1-dimethyl-cyclopentanecarboxamide], the IC50 under setting [1] was 25 to 200 nM.
In the case of `O=C([C@@H]1CC[C@@H](Nc2ncc3c(Br)nn(-c4cc(F)c5ncccc5c4)c3n2)C1)N1CCC(O)(C(=O)O)C1` (stereo partly drawn) [1-((1R,3R)-3-((3-bromo-1-(8-fluoroquinolin-6-yl)-1H-pyrazolo[3,4-d]pyrimidin-6-yl)amino)cyclopentane-1-carbonyl)-3-hydroxy-pyrrolidine-3-carboxylic acid], under setting [1], the IC50 lay in the range of 500 to 1000 nM.
With `CC(O)C(=O)N1CCN(C(=O)[C@@H]2CC[C@@H](Nc3ncc4c(Br)nn(-c5ccc6ncccc6c5)c4n3)C2)CC1` (stereo partly drawn) [1-(4-((1R,3R)-3-((3-bromo-1-(quinolin-6-yl)-1H-pyrazolo[3,4-d]pyrimidin-6-yl)amino)cyclopentane-1-carbonyl)piperazin-1-yl)-2-hydroxypropan-1-one], the IC50 under setting [1] lay within 25 to 200 nM.
On to `CCNC(=O)[C@@H]1CC[C@@H](Nc2ncc3c(Br)nn(-c4cc(F)c5ncccc5c4)c3n2)C1` [(1R,3R)-3-[[3-bromo-1-(8-fluoro-6-quinolyl)pyrazolo[3,4-d]pyrimidin-6-yl]amino]-N-ethyl-cyclopentanecarboxamide], for which the IC50 under setting [1] lay in the range of 25 to 200 nM.
Same read-out and setting: then `CNC(=O)[C@]1(C#N)CC[C@@H](Nc2ncc3c(Br)nn(-c4ccc(-c5nnc(C)s5)c(CCC#N)c4)c3n2)C1`, with 25 to 200 nM; and `C[C@@H]1CNC[C@H](C)N1C(=O)[C@@H]1CC[C@@H](Nc2ncc3c(Br)nn(-c4ccc5ncccc5c4)c3n2)C1` [((1R,3R)-3-((3-bromo-1-(quinolin-6-yl)-1H-pyrazolo[3,4-d]pyrimidin-6-yl)amino)cyclo-pentyl)((2R,6S)-2,6-dimethylpiperazin-1-yl)methanone], with under 25 nM.
As to `N#Cc1cc(-n2nc(Br)c3cnc(N[C@@H]4CC[C@H](C(=O)NCC5(F)CNC5)C4)nc32)cc2cccnc12` [(1S,3R)-3-((3-bromo-1-(8-cyanoquinolin-6-yl)-1H-pyrazolo[3,4-d]pyrimidin-6-yl)amino)-N-((3-fluoroazetidin-3-yl)methyl)cyclo-pentane-1-carboxamide], the IC50 under setting [1] was 25 to 200 nM.
On the same count and under the same terms, then `CNC(=O)[C@]1([C@H](C)C#N)CC[C@@H](Nc2ncc3c(Br)nn(-c4ccc(-c5nnc(C)s5)cc4)c3n2)C1` [(1R,3R)-3-[[3-bromo-1-[4-(5-methyl-1,3,4-thiadiazol-2-yl)phenyl]pyrazolo [3,4-d]pyrimidin-6-yl]amino]-1-[(1S)-1-cyanoethyl]-N-methyl-cyclopentane-carboxamide], with 25 to 200 nM; and `Cc1nnc(-c2ccc(-n3nc(Br)c4cnc(N[C@@H]5CC[C@@](C)(C(=O)N6CCP(C)(=O)CC6)C5)nc43)cc2)s1`, with 25 to 200 nM.
For the compound `CNC(=O)[C@]1(C)CCC(Nc2ncc3c(Br)nn(-c4ccc5c(c4)CNC5=O)c3n2)C1` (stereo partly drawn) [(1R)-3-[[3-bromo-1-(1-oxoisoindolin-5-yl)pyrazolo[3,4-d]pyrimidin-6-yl]amino]-N,1-dimethyl-cyclopentanecarboxamide], the IC50 under setting [1] is 25 to 200 nM.
For `CNC(=O)[C@]1(C)CC[C@@H](Nc2ncc3c(Br)nn(-c4cc(C#N)cc(CO)c4)c3n2)C1` [(1R,3R)-3-[[3-bromo-1-[3-cyano-5-(hydroxymethyl)phenyl]pyrazolo[3,4-d]pyrimidin-6-yl]amino]-N,1-dimethyl-cyclopentanecarboxamide], the IC50 under setting [1] fell in the range of 25 to 200 nM.
With `COCCNC(=O)[C@@H]1CC[C@@H](Nc2ncc3c(Br)nn(-c4ccc5nccnc5c4)c3n2)C1` [(1R,3R)-3-((3-bromo-1-(quinoxalin-6-yl)-1H-pyrazolo[3,4-d]pyrimidin-6-yl)amino)-N-(2-methoxyethyl)cyclopentane-1-carboxamide], the IC50 under setting [1] was in the range of 25 to 200 nM.
`NC(=O)C1(NC(=O)[C@@H]2CC[C@@H](Nc3ncc4c(Br)nn(-c5cc(F)c6ncccc6c5)c4n3)C2)CCC1` [(1R,3R)-3-[[3-bromo-1-(8-fluoro-6-quinolyl)pyrazolo[3,4-d]pyrimidin-6-yl]amino]-N-(1-carbamoylcyclobutyl)cyclopentane-carboxamide]: under setting [1], the IC50 was 25 to 200 nM.
For the compound `CNC(=O)[C@H]1C[C@H](Nc2ncc3c(Br)nn(-c4ccc(-c5nnc(C)s5)cc4)c3n2)CO1` [(2R,4S)-4-[[3-bromo-1-[4-(5-methyl-1,3,4-thiadiazol-2-yl)phenyl]pyrazolo [3,4-d]pyrimidin-6-yl]amino]-N-methyl-tetrahydrofuran-2-carboxamide], the IC50 under setting [1] fell in the range of 25 to 200 nM.
On the same count and under the same terms, then `CNC(=O)[C@]1(C)CC[C@@H](Nc2ncc3c(Br)nn(-c4cc(Cl)cc(CCS(C)(=O)=O)c4)c3n2)C1`, with 25 to 200 nM.
For the compound `Cc1nnc(-c2ccc(-n3nc(Br)c4cnc(N[C@@H]5CC[C@@H](P(C)(C)=O)C5)nc43)cc2)s1` [Example 57, ((1R,3R)-3-((3-bromo-1-(4-(5-methyl-1,3,4-thiadiazol-2-yl)phenyl)-1H-pyrazolo[3,4-d]pyrimidin-6-yl)amino)cyclopentyl)dimethylphosphine oxide], the IC50 under setting [2] was in the range of 25 to 200 nM.
As to `CNC(=O)[C@]1(C)CC[C@@H](Nc2ncc3c(Br)nn(-c4ccc(-c5ncco5)c(C(C)(C)C#N)c4)c3n2)C1` [(1R,3R)-3-[[3-bromo-1-[3-(1-cyano-1-methyl-ethyl)-4-oxazol-2-yl-phenyl]pyrazolo[3,4-d]pyrimidin-6-yl]amino]-N,1-dimethyl-cyclopentanecarboxamide], under setting [1], the IC50 was 25 to 200 nM.
